According to patent publication US20150086557A1, “NOVEL INTEGRIN alpha9 beta1 LIGAND AND USES THEREOF” (OSAKA UNIVERSITY, priority 2012, published 2015):

What was measured:
Type in all cases: cell-based, mouse
hematopoietic stem cells [1] = test: Proliferation of hematopoietic stem cells on coated plates
Procedure: (§1) Bone marrow cells were flushed out from the femurs and tibias of three mice of 6 to 7 weeks of age (C57BL/6J) and dissociated with a 22G needle. The cells were reacted with a biotin-labeled anti-lineage antibody for 30 minutes and subsequently with an anti-blotin antibody-conjugated magnetic beads, and lineage-positive cells were removed by automated magnetic cell sorter autoMACS (Miltenyi Biotec). After staining with PE-CD3, PE-Mac1, PE-Gr1, PE-Ter119, PE-B220, FTTC-Sca1 and APC-c-Kit, a lineage(−) Sca1(+) c-Kit (high) cell fraction was sorted out using FACSAria and used for the experiments described below.
(§2) The above-prepared cells were plated on a 48-well plate coated with a recombinant polydom protein or fibronectin. The same type of plate without coating was used as a control. The medium used was RPMI containing 10% fetal calf serum, thrombopoietin (30 ng/ml) and flt3 ligand (100 ng/ml). For the examination of cell proliferation, the cells were plated in duplicate wells for each coating at 1000 cells/well and started to be cultured, and the cell number was counted at the start of culture, and on day 2 and day 3. The remaining cells were divided into three aliquots, plated in wells for each coating, and subjected to FACS analysis on day 3 after the start of culture. For the FACS analysis, staining with an antibody cocktail containing PE-CD3, PE-Mac1, PE-Gr1, PE-Ter119, PE-B220, FITC-Sca1 and APC-c-Kit was performed and FACSCont was used.
The above-prepared cells were divided into three groups and plated on 48-well plates at 5000 cells/well. The medium used was RPMI containing 10% fetal calf serum, thrombopoietin (30 ng/ml) and flt3 ligand (100 ng/ml). For an EDDMMEVPY peptide treatment group, 2 μl of the peptide was added to each well at the final concentration of 50 μM, and for the other two groups, 2 μl of PBS was added to each well. Then, the culture was performed at […] for 2 hours. Subsequently, the cells were transferred to 48-well plates coated with a recombinant polydom protein or fibronectin. The cells cultured in the presence of the peptide were transferred to the recombinant polydom protein-coated plate, and the cells in one of the other two groups were transferred to the recombinant polydom protein-coated plate, and the cells in the remaining group were transferred to the fibronectin-coated plate. The culture was continued for 3 days and the cell numbers were counted on day 2, day 3 and […].

hematopoietic stem cells [2] = test: FACS analysis of differentiation of hematopoietic stem cells on coated wells; conditions: day 3 of culture on coated well, FIG. 19
Procedure: as §1, §2

cardiac stem cells [3] = test: Cell adhesion assay using GFP label-retaining cells (cardiac stem cells); conditions: 100 nM coating, FIG. 25
Description: (§3) Tissue stem cells are known to generally have a very prolonged, cell cycle and thus allow labeling compounds incorporated into DNA and the cell interior to remain stable for a long period of time without decay along with cell division, This nature can be advantageously used to identify and separate tissue stem cells by short-term labeling or cells with a nucleotide analog such as bromodeoxyuridine (BrdU) or a fusion protein of green fluorescent protein (hereinafter referred to as “GFP”) and a nucleoprotein, histone, followed by selection of cells retaining the label for a long period of time (label-retaining cells). In this experiment, with the use of a tetracycline-inducible expression system in combination with the ROSA26 promoter, a fusion protein of GFP and histone H2B (H2B-GFP) was expressed in the heart of a mouse for 2 weeks starting 1 week before birth, and 6 weeks later, cardiac stem cells were separated as GFP label-retaining cells from the heart.
To explore whether polydom serves as a scaffold for integrin α9β1-expressing cardiac stem cells, cardiac stem cells were separated as GFP label-retaining cells and subjected to a cell adhesion assay. A 96-well immuno plate (Nunc Maxisorp) was coated with 50 μl/well of 100 nM polydom or fibronectin at 4° C. overnight, GFP label-retaining cells were collected by FACSAria and suspended at 1×10^6 cells/ml in serum-free Iscove's Modified Dulbecco Medium (hereinafter referred to as “IMDM”). The cell suspension was plated at 100 μl/well and cultured in a 5% CO2 incubator at 37° C. for 12 hours. After three washes with PBS, the cells were fixed with 100 μl/well of 3.7% formalin for 15 minutes. Then, the cells were incubated with 0.5% toluidine blue (150 μl/well) for 10 minutes and washed with MilliQ water. After drying, the number of attached cells was counted under a microscope.

cardiac stem cells [4] = test: Colony forming ability of GFP label-retaining cells (cardiac stem cells); conditions: 100 nM coating, 1×10^4 cells/well, 2 weeks, FIG. 26
Description: as §3
To explore whether cardiac stem cells proliferate on a polydom-coated plate, colony formation was measured, as an indicator of proliferation. A Falcon 6-well plate was coated with 800 μl/well of 100 nM polydom or fibronectin at 4° C. overnight. GFP label-retaining cells were collected by FACSAria and suspended in IMDM containing 10% fetal calf serum. […] After drying, the number of colonies was counted under a microscope.

polydom: recombinant mouse SVEP1 (SEQ ID NO: 2), ECM protein, ligand for integrin α9β1
proliferation of hematopoietic stem cells on coated wells (hematopoietic stem cells [1]; 1000 cells/well, counted to day 3, versus uncoated control, FIG. 18): remarkably inhibited from proliferating
proliferation of hematopoietic stem cells on coated plate after PBS pretreatment (hematopoietic stem cells [1]; 5000 cells/well, counted day 2 to day 4, FIG. 20): remarkably inhibited from proliferating
expression of Sca1 on hematopoietic stem cells (hematopoietic stem cells [2]): maintained the expression of Sca1
expression of c-Kit on hematopoietic stem cells (hematopoietic stem cells [2]): reduced expression of c-Kit
adhesion of cardiac stem cells to coated plate (cardiac stem cells [3]; 12 hours, serum-free IMDM): a large number of the cells adhered
cell adhesion activity for cardiac stem cells compared with fibronectin (cardiac stem cells [3]): equivalent or superior to fibronectin
colony forming activity (colony count relative to the number of cells plated) (cardiac stem cells [4]): about 0.8%
